# Laboratory results: patent US7482367B2, “Substituted benzimidazoles and methods of their use” (Novartis Vaccines and Diagnostics, Inc., priority 2005, dated 2009)
# Where two headings read alike, the source gives them in different places.
# Assays:
# [1] = format: in vivo, Nu/Nu mice; details: for Mean body weight loss on day 28: 100 mg/kg per dose
# Description: Therefore, the most efficacious dosage of 100 mg/kg was further evaluated as described below.
# [2] = format: in vivo, mice; details: at target plasma concentration, corrected for protein binding
# Plasma protein binding = format: in vitro ADME
# [3] = system: SKMEL-2 (wild-type Raf, mutant N-Ras); details: SKMEL-2 cells; 0.1 μM to 10 μM; 4 hours of incubation
# [4] = system: CHL-1 (wild-type Raf, wild-type Ras); details: CHL-1 cells; 0.1 μM to 10 μM; 4 hours of incubation
# human tumor isolate #4 [5] = details: Pancreatic tumor, K-Ras
# human tumor isolate #5 [6] = details: Colorectal tumor, K-Ras
# [7] = system: HT-29 (B-Raf V600E) colorectal carcinoma tumors; details: HT29, q2 d × 14, oral
# [8] = system: SKMEL-28 (mutant B-Raf V600E); assay: cells; details: Homo sapiens, SK-MEL-28, read-out: pERK inhibition EC50
# WM1799 (cell line) = assay: cells; details: WM-1799, 168 h
# HT-29 (cell line) = assay: cells; details: Homo sapiens, HT-29, 168 h
# Colo205 (cell line) = assay: cells; details: Homo sapiens, COLO 205, 168 h
# human tumor isolate #1 = assay: cells
# human tumor isolate #2 = assay: cells
# human tumor isolate #3 = assay: cells
# human tumor isolate #4 [9] = assay: cells; details: Pancreatic tumor, K-Ras
# human tumor isolate #5 [10] = assay: cells; details: Colorectal tumor, K-Ras
# human tumor isolate #6 = assay: cells
# human tumor isolated #7 = assay: tissue or blood
smiles,measurement,setting,value
"Cn1c(Nc2ccc(C(F)(F)F)cc2)nc2cc(Oc3ccnc(-c4ncc(C(F)(F)F)[nH]4)c3)ccc21 [Example 1, {1-Methyl-5-[2-(5-trifluoromethyl-1H-imidazol-2-yl)-pyridin-4-yloxy]-1H-benzoimidazol-2-yl}-(4-trifluoromethyl-phenyl)-amine]",Mean body weight loss on day 28,[1]; q2 d,12%
same,Mean body weight loss on day 28,[1]; q3 d,8%
same,Mean body weight loss on day 28,[1]; q4 d,7%
same,average loss of starting body weight by day 14,"[1]; daily dosing, 30 mg/kg and 100 mg/kg dose levels",10%
same,rough estimation of free drug concentration,[2],approximately 0.135 μM
same,protein bound in plasma,Plasma protein binding,greater than 99.9%
same,inhibition of Raf downstream signaling (MEK phosphorylation),[3],potent inhibitor of Raf downstream signaling
same,inhibition of Raf downstream signaling (MEK phosphorylation),[4],potent inhibitor of Raf downstream signaling
same,EC50,human tumor isolate #4 [5],1270 nM
same,EC50,human tumor isolate #5 [6],1200 nM
same,TGI/Regression,[7]; 10 mg/kg,12% TGI
same,TGI/Regression,[7]; 100 mg/kg,tumor regression
same,EC50,[8],100 nM
same,EC50,WM1799 (cell line),< 9.8 nM
same,EC50,HT-29 (cell line),26 nM
same,EC50,Colo205 (cell line),130 nM
same,EC50,human tumor isolate #1,55 nM
same,EC50,human tumor isolate #2,200 nM
same,EC50,human tumor isolate #3,570 nM
same,EC50,human tumor isolate #4 [9],~1000 nM
same,EC50,human tumor isolate #5 [10],~1000 nM
same,EC50,human tumor isolate #6,> 1000 nM
same,EC50,human tumor isolated #7,> 1000 nM
